In patent publication US20110245292A1, “2-HYDROXY-ETHANESULFONATE SALT” (AstraZeneca AB, priority 2008, published 2011):
Structures can show the parent of a compound that is named as a salt.

Test: Gravimetric Vapour Sorption (GVS)
Type: physicochemical
Experimental: Gravimetric Vapour Sorption (GVS) profiles were measured using a Surface Measurements Systems Dynamic Vapour Sorption DVS-1 or a DVS Advantage instrument. The solid sample ca. 1-5 mg was placed into a glass vessel and the weight of the sample was recorded during a dual cycle step method (40 to 90 to 0 to 90 to 0% relative humidity (RH), in steps of 10% RH).

| SMILES | GVS weight increase at 80% RH (80% RH (±0.3%), material of preparation 2) [%] | GVS mass increase at 80% RH (80% RH, material of preparation 1) | GVS mass increase, 1st cycle (1st cycle, sample of preparation 1 (step a)) | GVS mass increase, 2nd cycle (2nd cycle, sample of preparation 1 (step a)) [%] |
| --- | --- | --- | --- | --- |
| O[C@](c1ccccc1)(c1cc(C[N+]23CCC(CC2)[C@@H](Oc2cccc(F)c2)C3)on1)C1CCCCC1 [Salt Form A, (R)-1-[3-((R)-cyclohexyl-hydroxy-phenyl-methyl)-isoxazol-5-ylmethyl]-3-(3-fluoro-phenoxy)-1-azonia-bicyclo[2.2.2]octane 2-hydroxy-ethanesulfonate] | 0.15 | no mass increase |  |  |
| O[C@](c1ccccc1)(c1cc(C[N+]23CCC(CC2)[C@@H](Oc2cccc(F)c2)C3)on1)C1CCCCC1.[Cl-] [(R)-1-[3-((R)-Cyclohexyl-hydroxy-phenyl-methyl)-isoxazol-5-ylmethyl]-3-(3-fluoro-phenoxy)-1-azonia-bicyclo[2.2.2]octane chloride] |  |  | approximately 5% | ~6.5 |
